Test system: T1, 3-chlorobenzoate-1,2-dioxygenase (3-CBDO; 3-CBA-1,2-DO)
T1 construct: native enzyme, not purified, in intact freshly harvested 3-CBA-grown cells; component and subunit make-up printed only for the analogous benzoate 1,2-dioxygenase; with 3-chlorobenzoate 1,2-dioxygenase subunit beta (benzoate 1,2-dioxygenase small subunit-like); 3-chlorobenzoate 1,2-dioxygenase reductase component (benzoate 1,2-dioxygenase reductase-like)
Assay: respiration of intact cells, Clark oxygen electrode reactor biosensor; Hill fit
Format: cell-based, Rhodococcus opacus
Conditions: 50 mM Tris-HCl pH 8.0, air-saturated, room temperature; intact 3-CBA-grown cells (indirect estimate of enzyme activity); Hill n 2.36; no added inhibitor; read-out: S0.5

SMILES: O=C(O)c1cccc(Cl)c1 [3-chlorobenzoate]
- Km: 45.3 ± 6.3 µM

— publication PMC6784447, “Evaluation of 3-Chlorobenzoate 1,2-Dioxygenase Inhibition by 2- and 4-Chlorobenzoate with a Cell-Based Technique” (Biosensors, 2019)
